Experimental data taken from the supplement of paper PMC11208160.

assay: recombinant UMI read abundance after kanamycin selection (control-corrected) (log10(CPM+1)); higher = more efficient recombination; extreme values may be limits of the assay; sequences stand for … in AGTGCAGAGAAAATCGGCCAGTTTTCTCTGCCTGCAGTCCGCATGCCGTGGGACCCCTTGGGTTCTAACCTGTTGCCTAGATTTATGCAGCGGACTGCCTTTCTCCCAAAGTGATAAACCGG…AGGTTGGTTTCACT; site = the 11-nt donor
How it was run: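 In Escherichia coli, a pool of donor and donor-binding-loop pairs, each with a 12-nt UMI, was tested for the IS621 bridge recombinase. Plating was on IPTG (0.07 mM) plus kanamycin, or without selection, in two replicates. Recombinant UMIs were amplified by PCR across the donor–target junction and sequenced, and counts were reported as log10(CPM+1) after averaging and control-derived scaling.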
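Further: IS621 bridge recombinase in Escherichia coli cells against a fixed T5 target plasmid.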

Sequence	recombinant UMI read abundance (log10)
CCGCGCACATGGACCGGTTTTCCCGGTAATCCGTATTTGTT (site CCGCGCACTAA)	0.0199
CCGCGTACATGGACCGGTTTTCCCGGTAATCCGTATTTGTT (site CCGCGTACTAA)	0.0381
CCGGAAACATGGACCGGTTTTCCCGGTAATCCGTATTTGCA (site CAGGAAACTTG)	0
CCGGAAACATGGACCGGTTTTCCCGGTAATCCGTATTTGCA (site CCGGAAACTTG)	0.135
CCGGAAACATGGACCGGTTTTCCCGGTAATCCGTATTTGCA (site CGGGAAACTTG)	0
CCGGAAACATGGACCGGTTTTCCCGGTAATCCGTATTTGCA (site CTGGAAACTTG)	0
CCGGAGTCATGGACCGGTTTTCCCGGTAATCCGTATTTGCC (site CAGGAGTCTGG)	0
CCGGAGTCATGGACCGGTTTTCCCGGTAATCCGTATTTGCC (site CCGGAGTCTGG)	1.55
CCGGAGTCATGGACCGGTTTTCCCGGTAATCCGTATTTGCC (site CGGGAGTCTGG)	0
CCGGAGTCATGGACCGGTTTTCCCGGTAATCCGTATTTGCC (site CTGGAGTCTGG)	0
CCGGCAGCATGGACCGGTTTTCCCGGTAATCCGTATTTGCA (site CCGGCAGCTTG)	0.255
CCGGCAGCATGGACCGGTTTTCCCGGTAATCCGTATTTGTA (site CCGGCAGCTTA)	0.665
CCGGTACCATGGACCGGTTTTCCCGGTAATCCGTATTTGAG (site CCGGTACCTCT)	0
CCGGTAGCATGGACCGGTTTTCCCGGTAATCCGTATTTGTG (site CCGATAGCTCA)	0
CCGGTAGCATGGACCGGTTTTCCCGGTAATCCGTATTTGTG (site CCGCTAGCTCA)	0.0271
CCGGTAGCATGGACCGGTTTTCCCGGTAATCCGTATTTGTG (site CCGGTAGCTCA)	0.303
CCGGTAGCATGGACCGGTTTTCCCGGTAATCCGTATTTGTG (site CCGTTAGCTCA)	0.0101
CCGGTCCCATGGACCGGTTTTCCCGGTAATCCGTATTTGTC (site CCGGTCCCTGA)	0
CCGGTTACATGGACCGGTTTTCCCGGTAATCCGTATTTGCT (site CCGATTACTAG)	0.782

Sequence	recombinant UMI read abundance (log10)
CCGGTTACATGGACCGGTTTTCCCGGTAATCCGTATTTGCT (site CCGCTTACTAG)	0
CCGGTTACATGGACCGGTTTTCCCGGTAATCCGTATTTGCT (site CCGGTTACTAG)	0
CCGGTTACATGGACCGGTTTTCCCGGTAATCCGTATTTGCT (site CCGTTTACTAG)	0
CCGTAAGCATGGACCGGTTTTCCCGGTAATCCGTATTTGTG (site CCGTAAGCTCA)	0.404
CCGTAAGCATGGACCGGTTTTCCCGGTAATCCGTATTTGTG (site CCGTCAGCTCA)	0.0145
CCGTAAGCATGGACCGGTTTTCCCGGTAATCCGTATTTGTG (site CCGTGAGCTCA)	0.011
CCGTAAGCATGGACCGGTTTTCCCGGTAATCCGTATTTGTG (site CCGTTAGCTCA)	0.0113
CCGTAGTCATGGACCGGTTTTCCCGGTAATCCGTATTTGGG (site CCGTAGTCTCC)	0.0263
CCGTCTACATGGACCGGTTTTCCCGGTAATCCGTATTTGCT (site CCGTATACTAG)	0
CCGTCTACATGGACCGGTTTTCCCGGTAATCCGTATTTGCT (site CCGTCTACTAG)	0.223
CCGTCTACATGGACCGGTTTTCCCGGTAATCCGTATTTGCT (site CCGTGTACTAG)	0
CCGTCTACATGGACCGGTTTTCCCGGTAATCCGTATTTGCT (site CCGTTTACTAG)	0
CCGTTACCATGGACCGGTTTTCCCGGTAATCCGTATTTGTG (site CCGTTAACTCA)	0.00404
CCGTTACCATGGACCGGTTTTCCCGGTAATCCGTATTTGTG (site CCGTTACCTCA)	0.0136
CCGTTACCATGGACCGGTTTTCCCGGTAATCCGTATTTGTG (site CCGTTAGCTCA)	0.0116
CCGTTACCATGGACCGGTTTTCCCGGTAATCCGTATTTGTG (site CCGTTATCTCA)	0
CCGTTAGCATGGACCGGTTTTCCCGGTAATCCGTATTTGCG (site CCGTTAGCTCA)	0
CCGTTAGCATGGACCGGTTTTCCCGGTAATCCGTATTTGCG (site CCGTTAGCTCC)	0
CCGTTAGCATGGACCGGTTTTCCCGGTAATCCGTATTTGCG (site CCGTTAGCTCG)	0.184

Sequence	recombinant UMI read abundance (log10)
CCGTTAGCATGGACCGGTTTTCCCGGTAATCCGTATTTGCG (site CCGTTAGCTCT)	0.0063
CCGTTCACATGGACCGGTTTTCCCGGTAATCCGTATTTGCT (site CCGTTAACTAG)	0
CCGTTCACATGGACCGGTTTTCCCGGTAATCCGTATTTGCT (site CCGTTCACTAG)	0.726
CCGTTCACATGGACCGGTTTTCCCGGTAATCCGTATTTGCT (site CCGTTGACTAG)	0
CCGTTCACATGGACCGGTTTTCCCGGTAATCCGTATTTGCT (site CCGTTTACTAG)	0
CCGTTTACATGGACCGGTTTTCCCGGTAATCCGTATTTGCA (site CCGTTTACTAG)	0
CCGTTTACATGGACCGGTTTTCCCGGTAATCCGTATTTGCA (site CCGTTTACTCG)	0
CCGTTTACATGGACCGGTTTTCCCGGTAATCCGTATTTGCA (site CCGTTTACTGG)	0
CCGTTTACATGGACCGGTTTTCCCGGTAATCCGTATTTGCA (site CCGTTTACTTG)	0
CCGTTTACATGGACCGGTTTTCCCGGTAATCCGTATTTGCG (site CCGTTTACTAG)	0
CCGTTTACATGGACCGGTTTTCCCGGTAATCCGTATTTGCG (site CCGTTTACTCG)	0.0437
CCGTTTACATGGACCGGTTTTCCCGGTAATCCGTATTTGCG (site CCGTTTACTGG)	0
CCGTTTACATGGACCGGTTTTCCCGGTAATCCGTATTTGCG (site CCGTTTACTTG)	0
CCGTTTGCATGGACCGGTTTTCCCGGTAATCCGTATTTGTG (site CCGTTAGCTCA)	0.00545
CCGTTTGCATGGACCGGTTTTCCCGGTAATCCGTATTTGTG (site CCGTTCGCTCA)	0.0182
CCGTTTGCATGGACCGGTTTTCCCGGTAATCCGTATTTGTG (site CCGTTGGCTCA)	0.0153
CCGTTTGCATGGACCGGTTTTCCCGGTAATCCGTATTTGTG (site CCGTTTGCTCA)	0
CCTAAAGCATGGACCGGTTTTCCCGGTAATCCGTATTTGAG (site CCTAAAGCTAT)	0
CCTAAAGCATGGACCGGTTTTCCCGGTAATCCGTATTTGAG (site CCTAAAGCTCT)	0.599
